Test results published in patent EP4559461A1, “DUAL NLRP1 AND NLRP3 INHIBITORS FOR USE AS A MEDICAMENT” (Servicio Andaluz de Salud, priority 2023, dated 2025).
Where two headings read alike, the source gives them in different places. One block for each compound: values may come before it.

How the values were obtained:
NLRP3 inflammasome = experiment: cytokines released into the culture medium after LPS+ATP activation (ELISA); format: cell-based; conditions: for IL-1β cytokine release: in vitro treatment, Figure 9; for IC50: estimated inhibitory capacity
Method: (§1) For biological assays, the THP-1 cell line (monocytes) was used and differentiated into macrophages using phorbol-12-myristate-13-acetate (PMA). They were then stimulated with 200 ng/mL ultrapure LPS for 4 hours, minus the negative control condition, to activate NLRP3 expression. At the same time, the necessary volume of the starting stock of each compound to be tested was added to reach the test concentration. After 4 h incubation at 37 °C, 5 mM ATP was added […] and incubated for 30 min to activate NLRP3 assembly. For NLRP1 activation, Valboropro, a specific inducer of this protein was used at 1µM for 24 hours. Protein expression levels were studied by western blot as a proteomic study and inflammation levels by determination of cytokines released into the medium by immunoassay techniques (ELISA).

NLRP3 = target: T1, NLRP3 (Homo sapiens, UniProt Q96P20); experiment: in vitro model of NLRP3 induction (LPS + ATP) in PMA-differentiated THP-1 macrophages, protein expression by western blot; format: cell-based
T1 construct: the THP-1 cell line (monocytes) was used and differentiated into macrophages; endogenous in cells; host or cells: THP-1 monocytes differentiated into macrophages with PMA
Method: as §1
(§2) The inventors of the present invention evaluated the inhibitory effects of compound C3 in an in vitro model of NLRP3 induction (LPS + ATP), and in an […] model of NLRP1 induction (ValboroPro or Vbp).

NLRP1 = target: T2, NLRP1 (Homo sapiens, UniProt Q9C000); experiment: in vitro model of NLRP1 induction (ValboroPro) in THP-1 macrophages, protein expression by western blot; format: cell-based; conditions: ValboroPro (Vbp) induction; dose-dependent; Figure 3
T2 construct: the THP-1 cell line (monocytes) was used and differentiated into macrophages; endogenous in cells; host or cells: THP-1 monocytes differentiated into macrophages with PMA
T2 sequence (Q9C000 1-1473): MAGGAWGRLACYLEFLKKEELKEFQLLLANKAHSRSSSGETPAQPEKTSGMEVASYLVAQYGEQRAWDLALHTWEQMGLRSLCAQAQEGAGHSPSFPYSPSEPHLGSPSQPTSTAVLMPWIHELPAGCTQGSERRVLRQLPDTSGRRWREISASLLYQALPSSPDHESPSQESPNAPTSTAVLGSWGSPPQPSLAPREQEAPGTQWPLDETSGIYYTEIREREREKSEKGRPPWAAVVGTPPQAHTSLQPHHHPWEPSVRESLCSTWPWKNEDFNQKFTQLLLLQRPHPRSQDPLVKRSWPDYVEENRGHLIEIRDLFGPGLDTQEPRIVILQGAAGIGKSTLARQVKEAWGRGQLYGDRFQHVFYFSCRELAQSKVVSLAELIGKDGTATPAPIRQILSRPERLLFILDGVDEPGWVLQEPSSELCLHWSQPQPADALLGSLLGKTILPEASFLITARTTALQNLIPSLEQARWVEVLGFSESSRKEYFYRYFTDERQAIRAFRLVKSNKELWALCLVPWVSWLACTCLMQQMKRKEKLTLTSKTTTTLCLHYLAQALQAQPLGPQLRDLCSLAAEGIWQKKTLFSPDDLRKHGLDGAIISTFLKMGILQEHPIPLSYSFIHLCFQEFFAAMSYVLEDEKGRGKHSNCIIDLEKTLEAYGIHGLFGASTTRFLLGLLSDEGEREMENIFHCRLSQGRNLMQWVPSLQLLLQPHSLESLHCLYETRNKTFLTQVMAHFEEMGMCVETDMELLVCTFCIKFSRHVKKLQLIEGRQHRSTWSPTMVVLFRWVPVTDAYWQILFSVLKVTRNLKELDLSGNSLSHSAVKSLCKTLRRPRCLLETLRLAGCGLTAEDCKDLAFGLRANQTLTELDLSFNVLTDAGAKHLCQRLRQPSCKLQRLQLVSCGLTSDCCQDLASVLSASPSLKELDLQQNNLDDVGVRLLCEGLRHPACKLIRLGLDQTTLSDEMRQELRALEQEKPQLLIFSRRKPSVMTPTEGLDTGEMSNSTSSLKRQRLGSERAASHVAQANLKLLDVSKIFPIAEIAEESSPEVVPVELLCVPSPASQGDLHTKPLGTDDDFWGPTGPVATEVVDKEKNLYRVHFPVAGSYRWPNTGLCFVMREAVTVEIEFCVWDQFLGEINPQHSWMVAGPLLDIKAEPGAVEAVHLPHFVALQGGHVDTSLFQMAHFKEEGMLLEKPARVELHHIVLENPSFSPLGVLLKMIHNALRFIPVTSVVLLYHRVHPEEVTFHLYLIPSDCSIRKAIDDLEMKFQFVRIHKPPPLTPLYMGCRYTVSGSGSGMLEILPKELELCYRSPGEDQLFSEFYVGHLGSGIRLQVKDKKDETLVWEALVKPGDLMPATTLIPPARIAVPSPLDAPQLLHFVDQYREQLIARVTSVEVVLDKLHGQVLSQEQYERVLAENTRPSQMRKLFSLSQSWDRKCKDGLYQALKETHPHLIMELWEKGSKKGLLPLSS
Method: as §1, §2

[1] = tested on: AIM-2, NLRP2, NLRC3 or NLRC4; experiment: expression of other inflammasome proteins (western blot, Figure 5); format: cell-based
Method: as §1
This is reflected by the increased ability of C3 to inhibit the expression of NLRP1, NLRP3, IL-1β and IL-18 compared to MCC950 and C5 (Figure 5 and Figure 8).

THP-1 cell line = experiment: in vitro toxicity (cell viability); format: cell-based; conditions: regardless of the dose tested; Figure 6
NEK7 to NLRP3 = target: T3, NEK7 to NLRP3 (Homo sapiens, UniProt Q96P20); experiment: NEK7 co-immunoprecipitation; format: binding; conditions: Figure 7
T3 construct: For biological assays, the THP-1 cell line (monocytes) was used; endogenous in cells
From the text: One of the possible mechanisms for NLRP3 inhibition is the inhibition of its binding to NEK7, since it has been shown that NEK7 interacts with NLRP3 to modulate NLRP3 inflammasome activation.

[2] = ageing mouse model (age-related metabolic dysfunction); format: in vivo, C57BL/6J mice
Method: (§3) For a better characterization of the effect of C3, the inventors determined its effect in two in vivo models: ageing mice (to evaluate the effect in age-related metabolic dysfunction), and ovarian aging mice (to evaluate the effect in infertility because of ovarian aging).
18-month-old C57BL/6J mice were treated with C3 (10 mg/Kg/day i.p.) or with a vehicle solution (saline) for over 4 weeks.

[3] = ovarian ageing mouse model; format: in vivo, mice
From the text: as §3
The second model used to evaluate the effect of C3 was related to ovarian aging. The reason behind this is that NLRP1 and NLRP3 is over-expressed during ovarian ageing (Figure 15).
For this, the inventors used 9-month-old adult mice to which C3 was administered for one month.

[4] = 18-month-old mice, 10 mg/Kg/day i.p., over 4 weeks, vs vehicle, Figure 10
[5] = ageing mice, 10 mg/Kg/day i.p., Figure 12
[6] = microscopic liver sections, Figure 12
[7] = old mice, 10 mg/Kg/day i.p., Figure 11
[8] = 9-month-old mice, administered for one month, Figure 13
[9] = histological staining, vs vehicle, Figure 14

T1 sequence (Q96P20 whole entry): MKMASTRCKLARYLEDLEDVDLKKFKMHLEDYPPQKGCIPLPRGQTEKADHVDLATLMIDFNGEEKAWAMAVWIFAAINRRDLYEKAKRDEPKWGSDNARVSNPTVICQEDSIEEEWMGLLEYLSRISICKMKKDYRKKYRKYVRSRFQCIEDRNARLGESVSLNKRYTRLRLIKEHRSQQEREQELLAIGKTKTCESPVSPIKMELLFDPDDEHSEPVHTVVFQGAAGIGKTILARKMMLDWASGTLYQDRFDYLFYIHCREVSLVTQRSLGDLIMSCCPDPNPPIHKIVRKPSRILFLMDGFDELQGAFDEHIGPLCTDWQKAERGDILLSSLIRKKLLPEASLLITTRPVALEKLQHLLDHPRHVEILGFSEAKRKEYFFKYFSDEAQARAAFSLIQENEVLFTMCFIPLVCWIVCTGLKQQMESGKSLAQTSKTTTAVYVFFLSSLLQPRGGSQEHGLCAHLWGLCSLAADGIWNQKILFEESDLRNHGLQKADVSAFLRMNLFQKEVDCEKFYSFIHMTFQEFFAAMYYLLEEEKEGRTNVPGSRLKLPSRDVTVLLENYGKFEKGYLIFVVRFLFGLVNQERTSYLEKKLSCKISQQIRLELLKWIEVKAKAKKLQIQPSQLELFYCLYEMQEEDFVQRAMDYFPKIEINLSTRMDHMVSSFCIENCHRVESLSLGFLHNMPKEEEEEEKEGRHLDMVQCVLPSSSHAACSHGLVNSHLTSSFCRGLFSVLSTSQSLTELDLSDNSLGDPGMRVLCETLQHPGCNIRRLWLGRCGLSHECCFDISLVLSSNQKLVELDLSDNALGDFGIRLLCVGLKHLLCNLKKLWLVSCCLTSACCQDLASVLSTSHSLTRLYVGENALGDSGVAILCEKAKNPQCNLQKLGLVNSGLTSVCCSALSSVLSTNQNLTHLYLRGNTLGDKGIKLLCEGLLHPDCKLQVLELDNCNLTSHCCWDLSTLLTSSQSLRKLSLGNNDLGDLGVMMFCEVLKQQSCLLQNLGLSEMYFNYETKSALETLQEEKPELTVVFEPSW
T3 sequence (Q96P20 whole entry): as above

Structure (SMILES): COc1ccc(CNS(C)(=O)=O)cc1 [Compound C1, N-(4-methoxybenzyl) methanesulfonamide]
IL-1β cytokine release (NLRP3 inflammasome): reduction

Structure (SMILES): CS(=O)(=O)NCc1ccc2c(c1)OCO2 [Compound C2, N-(4,5-methylenedioxybenzyl) methanesulfonamide]
IL-1β cytokine release (NLRP3 inflammasome): reduction

expression of NLRP3 (NLRP3; LPS + ATP induction, dose-dependent, Figure 3): inhibited the expression | expression of the inflammasome activation-associated protein IL-1β (NLRP3; LPS+ATP or VbP induction, dose-dependent, Figure 3): reduced the expression | inhibitory capacity (expression of NLRP1, NLRP3, IL-1β and IL-18) (NLRP3; compared to MCC950 and C5, Figure 5 and Figure 8): increased inhibitory capacity | expression of NLRP1 (NLRP1): inhibited the expression | IC50 (NLRP3 inflammasome; Figure 4A, read-out: IC50 (IL-1β) release into the culture medium): 5.38 nM | IC50 (NLRP3 inflammasome; Figure 4B, read-out: IC50 (IL-18) release into the culture medium): 4450 nM | binding of NEK7 to NLRP3 (NEK7 to NLRP3): inhibited the binding
Structure (SMILES): CS(=O)(=O)NCc1cccc2ccccc12 [Compound C3, N-(naphthalen-1-ylmethyl) methanesulfonamide]
modulation of other inflammasome proteins such as AIM-2, NLRP2, NLRC3 or NLRC4 [1]: did not result in the modulation | cell viability (THP-1 cell line): above 85% | abdominal fat [2, 4]: significantly reduced | body weight [2, 4]: significantly reduced | NLRP1 protein expression [2, 5]: significant reduction | NLRP3 protein expression [2, 5]: significant reduction | serum IL1β levels [2, 5]: significant reduction | age-associated hepatic fibrosis [2, 6]: significantly reduced | age-associated hepatic steatosis [2, 6]: significantly reduced | glucose levels upon glucose challenges at the OGTT peak (>15 min) ([2]; old mice, 10 mg/Kg/day i.p., vs control, Figure 11): significantly decreased | serum leptin/adiponectin [2, 7]: reduced | serum levels of adiponectin [2, 7]: reduced | serum levels of leptin [2, 7]: reduced | AMH receptor [3, 8]: increase | Follicle-stimulating hormone (FSH) [3, 8]: reduction | antimüllerian hormone (AMH) [3, 8]: significant increase | protein levels of active Caspase 1 [3, 8]: decreased | protein levels of active IL-1β [3, 8]: decreased | improvement of the ovarian reserve by AMH hormone ([3]; compared to NLRP1 KO and NLRP3 KO mice, Figure 15): significantly higher improvement | percentage of atretic follicles [3, 9]: lower percentage | percentage of follicles [3, 9]: higher percentage

Structure (SMILES): CS(=O)(=O)NCc1ccc(Cl)cc1 [Compound C4, N-(4-chlorobenzyl) methanesulfonamide]
IL-1β cytokine release (NLRP3 inflammasome): reduction

Structure (SMILES): O=S(=O)(Cc1ccc2ccccc2c1)NCc1ccccc1 [Compound C7, N-benzyl-1-(naphthalen-2-yl) methanesulfonamide]
IL-1β cytokine release (NLRP3 inflammasome): reduction
